Measurements reported in PubChem BioAssay (NCI).
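Step 1: Grow cells in 96-well plates. Step 2: Expose to compound for 48 hours at 5 concentrations. Step 3: Interpolate endpoints linearly; if unreached, use highest concentration. TGI marks complete inhibition of growth.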

What was measured:
Assay in all cases: NCI tumour cell line growth inhibition, 48 h
[1] = test system: UACC-62 melanoma
[2] = test system: SNB-19 CNS
[3] = test system: SN12C renal
[4] = test system: HOP-92 NSCLC
[5] = test system: RXF 393 renal
[6] = test system: ACHN renal
[7] = test system: U251 CNS
[8] = test system: A549 NSCLC
[9] = test system: UACC-257 melanoma
[10] = test system: OVCAR-8 ovarian
[11] = test system: SF-539 CNS
[12] = test system: MOLT-4 leukemia
[13] = test system: SF-295 CNS
[14] = test system: SF-268 CNS
[15] = test system: DU-145 prostate
[16] = test system: MDA-MB-435
[17] = test system: OVCAR-4 ovarian
[18] = test system: 786-0 renal
[19] = test system: PC-3 prostate
[20] = test system: HCT-15 colon
[21] = test system: HT29 colon
[22] = test system: KM12 colon
[23] = test system: NCI-H522 lung
[24] = test system: CAKI-1 renal
[25] = test system: OVCAR-3 ovarian
[26] = test system: HCC-2998 colon
[27] = test system: NCI-H460 lung
[28] = test system: SK-OV-3 ovarian
[29] = test system: NCI/ADR-RES ovarian
[30] = test system: TK-10 renal
[31] = test system: MALME-3M melanoma
[32] = test system: K-562 leukemia
[33] = test system: HL-60(TB) leukemia
[34] = test system: OVCAR-5 ovarian
[35] = test system: RPMI-8226 leukemia
[36] = test system: A498 renal
[37] = test system: HS 578T breast
[38] = test system: COLO 205 colon
[39] = test system: SW-620 colon
[40] = test system: M14 melanoma
[41] = test system: HOP-62 NSCLC
[42] = test system: SK-MEL-2 melanoma
[43] = test system: LOX IMVI melanoma
[44] = test system: T-47D breast
[45] = test system: IGROV1 ovarian
[46] = test system: SK-MEL-28 melanoma
[47] = test system: MDA-N
[48] = test system: SK-MEL-5 melanoma
[49] = test system: HCT-116 colon
[50] = test system: CCRF-CEM leukemia
[51] = test system: UO-31 renal
[52] = test system: EKVX NSCLC
[53] = test system: NCI-H226 lung
[54] = test system: MDA-MB-231 breast
[55] = test system: NCI-H23 lung
[56] = test system: SR leukemia
[57] = test system: MCF7 breast
[58] = test system: SNB-75 CNS

CCOC(=O)c1c(N2CCCC2)nsc1Nc1ccc(F)cc1
TGI [1]: > 100 µM | TGI [2]: > 100 µM | TGI [3]: > 100 µM | TGI [4]: 95.7 µM | TGI [5]: 31.9 µM | TGI [6]: > 100 µM | TGI [7]: > 100 µM | TGI [8]: > 100 µM | TGI [9]: > 100 µM | TGI [10]: > 100 µM | TGI [11]: > 100 µM | TGI [12]: 70.1 µM | TGI [13]: > 100 µM | TGI [14]: > 100 µM | TGI [15]: > 100 µM | TGI [16]: > 100 µM | TGI [17]: > 100 µM | TGI [18]: > 100 µM | TGI [19]: > 100 µM | TGI [20]: > 100 µM | TGI [21]: 68 µM | TGI [22]: > 100 µM | TGI [23]: > 100 µM | TGI [24]: > 100 µM | TGI [25]: > 100 µM | TGI [26]: > 100 µM | TGI [27]: > 100 µM | TGI [28]: > 100 µM | TGI [29]: > 100 µM | TGI [30]: > 100 µM | TGI [31]: 57.5 µM | TGI [32]: > 100 µM | TGI [33]: 58.8 µM | TGI [34]: 89.7 µM | TGI [35]: > 100 µM | TGI [36]: > 100 µM | TGI [37]: > 100 µM | TGI [38]: > 100 µM | TGI [39]: > 100 µM | TGI [40]: > 100 µM | TGI [41]: > 100 µM | TGI [42]: 46.4 µM | TGI [43]: > 100 µM | TGI [44]: 46 µM | TGI [45]: > 100 µM | TGI [46]: > 100 µM | TGI [47]: > 100 µM | TGI [48]: 34.3 µM | TGI [49]: > 100 µM | TGI [50]: 73.7 µM | TGI [51]: 46.8 µM | TGI [52]: > 100 µM | TGI [53]: > 100 µM | TGI [54]: > 100 µM | TGI [55]: > 100 µM | TGI [56]: > 100 µM

CCOP(=O)(OCC)C1CC(O)C(=O)N1 (stereo not drawn)
TGI [1]: > 100 µM | TGI [2]: > 100 µM | TGI [3]: > 100 µM | TGI [6]: > 100 µM | TGI [7]: > 100 µM | TGI [8]: > 100 µM | TGI [9]: > 100 µM | TGI [10]: > 100 µM | TGI [12]: > 100 µM | TGI [13]: > 100 µM | TGI [14]: > 100 µM | TGI [15]: > 100 µM | TGI [16]: > 100 µM | TGI [17]: > 100 µM | TGI [18]: > 100 µM | TGI [19]: > 100 µM | TGI [20]: > 100 µM | TGI [21]: > 100 µM | TGI [22]: > 100 µM | TGI [25]: > 100 µM | TGI [28]: > 100 µM | TGI [29]: > 100 µM | TGI [57]: > 100 µM | TGI [30]: > 100 µM | TGI [31]: > 100 µM | TGI [32]: > 100 µM | TGI [34]: > 100 µM | TGI [35]: > 100 µM | TGI [36]: > 100 µM | TGI [37]: > 100 µM | TGI [38]: > 100 µM | TGI [39]: > 100 µM | TGI [40]: > 100 µM | TGI [41]: > 100 µM | TGI [42]: > 100 µM | TGI [43]: > 100 µM | TGI [58]: > 100 µM | TGI [45]: > 100 µM | TGI [46]: > 100 µM | TGI [47]: > 100 µM | TGI [48]: > 100 µM | TGI [49]: > 100 µM | TGI [50]: > 100 µM | TGI [51]: > 100 µM | TGI [52]: > 100 µM | TGI [53]: > 100 µM | TGI [54]: > 100 µM | TGI [55]: > 100 µM | TGI [56]: > 100 µM

O=C(CCCN1CCC2(CC1)OC(=O)N(c1ccccc1)C2=O)c1ccccc1
TGI [1]: > 100 µM | TGI [2]: > 100 µM | TGI [3]: > 100 µM | TGI [4]: > 100 µM | TGI [5]: > 100 µM | TGI [6]: > 100 µM | TGI [7]: > 100 µM | TGI [8]: > 100 µM | TGI [9]: > 100 µM | TGI [10]: > 100 µM | TGI [11]: > 100 µM | TGI [12]: > 100 µM | TGI [13]: > 100 µM | TGI [14]: > 100 µM | TGI [15]: > 100 µM | TGI [16]: > 100 µM | TGI [17]: > 100 µM | TGI [18]: > 100 µM | TGI [19]: > 100 µM | TGI [20]: > 100 µM | TGI [21]: > 100 µM | TGI [22]: > 100 µM | TGI [23]: > 100 µM | TGI [24]: > 100 µM | TGI [25]: > 100 µM | TGI [26]: > 100 µM | TGI [27]: > 100 µM | TGI [28]: > 100 µM | TGI [29]: > 100 µM | TGI [57]: > 100 µM | TGI [30]: > 100 µM | TGI [31]: > 100 µM | TGI [32]: > 100 µM | TGI [33]: > 100 µM | TGI [34]: > 100 µM | TGI [35]: > 100 µM | TGI [36]: > 100 µM | TGI [37]: > 100 µM | TGI [38]: > 100 µM | TGI [39]: > 100 µM | TGI [40]: > 100 µM | TGI [41]: > 100 µM | TGI [42]: > 100 µM | TGI [43]: > 100 µM | TGI [58]: > 100 µM | TGI [44]: > 100 µM | TGI [45]: > 100 µM | TGI [46]: > 100 µM | TGI [47]: > 100 µM | TGI [48]: > 100 µM | TGI [49]: > 100 µM | TGI [50]: > 100 µM | TGI [51]: 46.3 µM | TGI [52]: > 100 µM | TGI [53]: > 100 µM | TGI [54]: 93.4 µM | TGI [55]: > 100 µM | TGI [56]: > 100 µM

O=Nc1c(O)cc(Nc2ccc(Br)cc2)c2ccccc12
TGI [2]: 11.8 µM | TGI [3]: > 63.6 µM | TGI [4]: 45.2 µM | TGI [5]: 50.3 µM | TGI [6]: 25.1 µM | TGI [7]: 40.8 µM | TGI [8]: 6.04 µM | TGI [9]: 3.33 µM | TGI [10]: 37.2 µM | TGI [11]: > 100 µM | TGI [12]: 42 µM | TGI [13]: 2.98 µM | TGI [14]: > 55.6 µM | TGI [15]: 3.33 µM | TGI [16]: 3.37 µM | TGI [17]: > 100 µM | TGI [18]: 27.3 µM | TGI [19]: > 100 µM | TGI [20]: 15 µM | TGI [21]: 28.1 µM | TGI [22]: 23.1 µM | TGI [23]: > 100 µM | TGI [24]: 23.7 µM | TGI [25]: > 51.9 µM | TGI [26]: 19.4 µM | TGI [27]: 11 µM | TGI [28]: 30.8 µM | TGI [29]: 33.1 µM | TGI [57]: 17.8 µM | TGI [30]: 27.7 µM | TGI [32]: > 75 µM | TGI [33]: 55.9 µM | TGI [34]: 29.8 µM | TGI [35]: > 86.9 µM | TGI [36]: 22.2 µM | TGI [37]: > 28.4 µM | TGI [38]: 26.6 µM | TGI [39]: 35 µM | TGI [40]: 3.03 µM | TGI [41]: 19.1 µM | TGI [42]: 3.64 µM | TGI [43]: > 31.2 µM | TGI [44]: > 73.8 µM | TGI [45]: > 100 µM | TGI [46]: 4.2 µM | TGI [47]: 3.41 µM | TGI [48]: 3.15 µM | TGI [49]: > 59.2 µM | TGI [50]: > 100 µM | TGI [51]: 23 µM | TGI [52]: > 100 µM | TGI [53]: 10.5 µM | TGI [54]: 48.3 µM | TGI [55]: 3.47 µM | TGI [56]: 72.4 µM
